Experimental data from paper doi:10.1101/2025.09.29.679234, “Engineered antimicrobial-derived peptides to manipulate mixed microbial systems” (bioRxiv, 2025).
Where two headings read alike, the source gives them in different places. No end group written: not given here. *: point of attachment. FITC = O=C1OC2(c3ccc(O)cc3Oc3cc(O)ccc32)c2ccc(NC(=S)*)cc21

Assays:
[1] = tested on: L. seeligeri in a 5 species synthetic community; assay: Depletion by FACS of FITC-labelled cells in the mixed community (16S V3-V4 amplicon sequencing of the fluorescence-negative population); type: cell-based, Listeria seeligeri; details: 40 μM of Ped-FITC printed in method, 4 °C 30 min, pH 6.0, 1 % BSA, 100 mM NaCl
Excerpt: We posited that pediocin PA-1 characterized here could be a potential tool to modulate the abundance of specific species in an intact microbial community. To this end, we pursued two approaches: 1) using synthetic pediocin PA-1 to deplete specific species by killing and 2) using FITC-conjugated pediocin PA-1 to deplete specific species by cell sorting. To deplete L. seeligeri by killing, we created a synthetic community of L. casei, L. plantarum L. cremoris, E. faecium, and L. seeligeri and grew it for 2 h. We then split the culture into 3 parts to which we added 1 μM, 10 μM, or 0 (control) unmodified pediocin PA-1 (Lifetein), respectively. We observed that after 4 h, the proportion of L. seeligeri in the control (untreated) increased from 18 % to 60 %. […] Next, we assessed the ability of FITC-conjugated pediocin (Ped-FITC) and its 15-mer version to deplete the target species through cell sorting. Again, we created a synthetic community containing L. seeligeri in abundance and assessed the proportion before and after FACS of FITC labeled cells. We attempted to sequence the fluorescence-positive population but were unsuccessful due to poor DNA yield. However, the genomic DNA isolated from the fluorescence-negative population indicated depletion of more than 50 % in the proportion of L. seeligeri from the synthetic community (Figure 4B). […]

[2] = tested on: L. seeligeri; assay: Cell-binding assay by flow cytometry; parameters: species or system Listeria seeligeri; details: for binding at the tested pHs (in words): pH 4.0, 6.0 and 7.4, Figure S10
Description: (§1) The binding affinity and avidity of pediocin to various Gram-positive and Gram-negative bacteria were studied using flow cytometry. Late log-phase cells were washed in the sodium phosphate buffer (5 mM, pH 6.0) and resuspended at an OD600 of 10^–3 in sodium-acetate buffer (25 mM, pH 4.0), sodium phosphate buffer (5 mM, pH 6.0) or sodium phosphate buffer (5mM, pH 7.4) containing 1 % BSA (bovine serum albumin) and 100 mM NaCl. Cells were incubated with varying concentrations of the conjugated peptide at 4 °C for 30 min. The unbound peptide was removed by centrifugation, and the pellet was resuspended in their respective binding containing 1 % BSA. Flow cytometry was performed on an Attune NxT flow cytometer (Life Technologies/ThermoFisher Scientific, Carlsbad, CA). Data (≥10^4 events were recorded) was recorded using a […] (488 nm) voltage of 360 V, gating was performed on SSC-A versus SSC-H plot to reduce false events.

[3] = tested on: E. faecium; assay: Cell-binding assay by flow cytometry; parameters: species or system Enterococcus faecium; details: pH 6.0
Description: as §1

[4] = tested on: L. seeligeri; type: cell-based, Listeria seeligeri; details: for antimicrobial activity (in words): kill curve / growth inhibition, Figures S7 and S9
Description: To determine the potency of the purified pediocin PA-1, we generated kill-curves against a range of target bacteria (Figure 1B). The concentration range tested was 3 pM to 3 μM following 10-fold serial dilutions. […] This is in approximate agreement with the published potency of pediocin PA-1 [28] . Though the molecular mass of pediocin PA-1 is expected to be 4.5 kDa, we observed the partially purified peptide to migrate with an apparent mass of ~12.5 kDa (Figure 1B). However, subsequent analysis by LC-MS yielded peaks of multiple m/z with the predominant peak at the expected molecular size of 4.6 kDa (Figure S4). The purified pediocin PA-1, separated on denaturing but non-reducing SDS-PAGE (since this bacteriocin contains two crucial disulfide bonds), was subjected to agar-overlay assay using L. seeligeri as indicator organism (Figure S5).
The antimicrobial spectrum of pediocin PA-1 was assayed using a kill curve. Cultures grown overnight were resuspended in fresh medium at an OD600 of 0.05. EC50 was determined by incubating cells with varying concentrations of pediocin in a 96-well plate, and growth was measured at 600 nm after 24 h.
Figure S7. Growth inhibition of L. seeligeri by modified and unmodified pediocin PA-1.

[5] = tested on: L. coryniformis; assay: Cell-binding assay by flow cytometry; parameters: species or system Lactobacillus coryniformis; details: flow cytometry, Atto488 conjugate up to 2 μM
Description: as §1

[6] = tested on: B. subtilis; assay: Cell-binding assay by flow cytometry; parameters: species or system Bacillus subtilis; details: flow cytometry
Description: as §1

“15-mer-FITC: FITC-conjugated 15-mer (K20-A34) fragment of pediocin PA-1 (KATTCIINNGAMAWA; also: FITC-conjugated, site not given here; UniProt P29430 38-52, looked up, fragment)” was tested, and the “depletion in the proportion of L. seeligeri (fluorescence-negative population after FACS)” value [1] was “more than 50%”, the “binding at the tested pHs (in words)” value [2] was “pH-dependent binding” and the Kd ([2]; pH 6.0 sodium phosphate 5 mM, 1 % BSA, 100 mM NaCl, 4 °C 30 min, read-out: apparent KD) was 2800 ± 300 nM. The “binding (in words)” value [3] was “modest binding”.

“30-mer-FITC: FITC-conjugated extended 30-mer fragment (S15-K43) of pediocin PA-1 (SVDWGKATTCIINNGAMAWATGGHQGNHK; also: FITC-conjugated, site not given here; UniProt P29430 33-61, looked up, fragment)” was tested, and the “binding at the tested pHs (in words)” value [2] was “pH-dependent binding” and the “binding (in words)” value ([2]; pH 6.0, L. seeligeri or the other species tested) was “unable to bind to any species tested”.

For CC[C@H](C)[C@@H]1NC(=O)[C@@H](NC(=O)[C@@H](NC(=O)[C@@H](NC(=O)[C@H](C)NC(=O)[C@H](CCCCN)NC(=O)CNC(=O)[C@H](Cc2c[nH]c3ccccc23)NC(=O)[C@H](CC(=O)O)NC(=O)[C@@H](NC(=O)[C@H](CO)NC(=O)[C@@H]2CSSC[C@H](NC(=O)[C@@H](NC(=O)[C@@H](NC(=O)CNC(=O)[C@H](CC(N)=O)NC(=O)CNC(=O)[C@H](Cc3ccc(O)cc3)NC(=O)[C@H](Cc3ccc(O)cc3)NC(=O)[C@@H](N)CCCCN)C(C)C)[C@@H](C)O)C(=O)NCC(=O)N[C@@H](CCCCN)C(=O)N[C@@H](Cc3c[nH]cn3)C(=O)N[C@@H](CO)C(=O)N2)C(C)C)[C@@H](C)O)[C@@H](C)O)CSSC[C@@H](C(N)=O)NC(=O)[C@H](CCCCN)NC(=O)[C@H](Cc2c[nH]cn2)NC(=O)[C@H](CC(N)=O)NC(=O)CNC(=O)[C@H](CCC(N)=O)NC(=O)[C@H](Cc2c[nH]cn2)NC(=O)CNC(=O)CNC(=O)[C@H]([C@@H](C)O)NC(=O)[C@H](C)NC(=O)[C@H](Cc2c[nH]c3ccccc23)NC(=O)[C@H](C)NC(=O)[C@H](CCSC)NC(=O)[C@H](C)NC(=O)CNC(=O)[C@H](CC(N)=O)NC(=O)[C@H](CC(N)=O)NC(=O)[C@H]([C@@H](C)CC)NC1=O [pediocin PA-1 from Biomatik, reference compound], the “antimicrobial activity (in words)” value [4] was “very low activity”.

With CC[C@H](C)[C@@H]1NC(=O)[C@@H](NC(=O)[C@@H](NC(=O)[C@@H](NC(=O)[C@H](C)NC(=O)[C@H](CCCCN)NC(=O)CNC(=O)[C@H](Cc2c[nH]c3ccccc23)NC(=O)[C@H](CC(=O)O)NC(=O)[C@@H](NC(=O)[C@H](CO)NC(=O)[C@@H]2CSSC[C@H](NC(=O)[C@@H](NC(=O)[C@@H](NC(=O)CNC(=O)[C@H](CC(N)=O)NC(=O)CNC(=O)[C@H](Cc3ccc(O)cc3)NC(=O)[C@H](Cc3ccc(O)cc3)NC(=O)[C@@H](N)CCCCN)C(C)C)[C@@H](C)O)C(=O)NCC(=O)N[C@@H](CCCCN)C(=O)N[C@@H](Cc3c[nH]cn3)C(=O)N[C@@H](CO)C(=O)N2)C(C)C)[C@@H](C)O)[C@@H](C)O)CSSC[C@@H](C(N)=O)NC(=O)[C@H](CCCCN)NC(=O)[C@H](Cc2c[nH]cn2)NC(=O)[C@H](CC(N)=O)NC(=O)CNC(=O)[C@H](CCC(N)=O)NC(=O)[C@H](Cc2c[nH]cn2)NC(=O)CNC(=O)CNC(=O)[C@H]([C@@H](C)O)NC(=O)[C@H](C)NC(=O)[C@H](Cc2c[nH]c3ccccc23)NC(=O)[C@H](C)NC(=O)[C@H](CCSC)NC(=O)[C@H](C)NC(=O)CNC(=O)[C@H](CC(N)=O)NC(=O)[C@H](CC(N)=O)NC(=O)[C@H]([C@@H](C)CC)NC1=O [synthetic pediocin PA-1, reference compound] the EC50 ([4]; 24 h) was ~40 nM.

For “Ped-488: purified biosynthetic pediocin conjugated to Atto488 using EDC-NHS chemistry (KYYGNGVTCGKHSCSVDWGKATTCIINNGAMAWATGGHQGNHKC; disulfide (positions not given here); ends not checked; also: Atto488 conjugated via EDC-NHS, site not given here; UniProt P29430 19-62, looked up)”, the maximum median fluorescence [5] was 6300 MFI, the Kd ([5]; 4 °C 30 min, 1 % BSA, 100 mM NaCl, Hill fit, read-out: Apparent KD) was ~46 nM and the “reduction in potency relative to the unmodified peptide” value ([4]; Atto488 conjugate vs unmodified pediocin) was 10 fold. For the same molecule, the “antimicrobial activity (in words)” value [4] was “maintained its antimicrobial activity”, the “antimicrobial activity (in words)” value ([4]; listed as Full-length pediocin conjugated to Atto488) was “retained antimicrobial activity” and the “antimicrobial activity (in words)” value ([4]; listed as conjugate to Atto488) was “very low activity”. For the same molecule, the Kd ([6]; Atto488 conjugate up to 2 μM, 4 °C 30 min, 1 % BSA, 100 mM NaCl, Hill fit, read-out: Apparent KD) was ~467 nM.

In the case of “Ped-FITC: synthesized FITC-conjugated full-length pediocin PA-1 ({FITC}-KYYGNGVTCGKHSCSVDWGKATTCIINNGAMAWATGGHQGNHKC; disulfide (positions not given here); ends not checked; UniProt P29430 19-62, looked up)”, the “depletion in the proportion of L. seeligeri (fluorescence-negative population after FACS)” value [1] is reported as “more than 50%”, the “binding at the tested pHs (in words)” value [2] is reported as “strong binding” and the “antimicrobial activity (in words)” value ([4]; listed as FITC-conjugation at the N-terminus) is reported as “abolished activity entirely”. For the same molecule, the “antimicrobial activity (in words)” value ([4]; listed as conjugate to FITC) was “very low activity” and the “binding (in words)” value ([6]; pH 6.0, highest concentration tested (30 μM)) was “modest binding”.

For “synthetic pediocin-Atto488 conjugate: Atto488 conjugated to the synthetic pediocin using EDC-NHS coupling (KYYGNGVTCGKHSCSVDWGKATTCIINNGAMAWATGGHQGNHKC; disulfide (positions not given here); ends not checked; also: Atto488 conjugated via EDC-NHS, site not given here; UniProt P29430 19-62, looked up)”, the “antimicrobial activity (in words)” value [4] was “inactive”.

With “synthetic pediocin-NBD conjugate: NBD (7-nitrobenz-2-oxa-1,3-diazole) conjugated to the synthetic pediocin using EDC-NHS coupling (KYYGNGVTCGKHSCSVDWGKATTCIINNGAMAWATGGHQGNHKC; disulfide (positions not given here); ends not checked; also: NBD conjugated via EDC-NHS, site not given here; UniProt P29430 19-62, looked up)” the “antimicrobial activity (in words)” value [4] was “inactive” and the “antimicrobial activity (in words)” value ([4]; listed as conjugate to NBD) was “very low activity”.
